Consider ten compounds from patent publication US20110118199A1, “USE OF CNS PENETRATING ANTICANCER COMPOUNDS FOR THE TREATMENT OF PROTOZOAL DISEASES” (priority 2006, published 2011).

In brackets after ≈: the same amount, converted by molar mass. Read-outs that look alike come from different tables or passages of the source.

The test system of data set [1] is Trypanosoma brucei rhodesiense (STIB 900 clone). As to the kind of experiment: Drug sensitivity assay (Alamar Blue, 72 h) against bloodstream form trypomastigotes in vitro. Format: cell-based. The protocol:
Bloodstream form trypomastigotes of the strains (a) and (c) are maintained in Minimal Essential Medium (MEM) with Earle's salts supplemented according to Baltz et al. (EMBO J. 4, 1273-1277, 1985) with 25 mM N-2-hydroxyethylpiperazine-N′-2-ethane-sulphonic acid (HEPES), 1 g/l additional glucose, 1% MEM non-essential amino acids (100×), 0.2 mM 2-mercaptoethanol, 2 mM sodium pyruvate, 0.1 mM hypoxanthine and 15% heat-inactivated horse serum.
All cultures and assays are conducted at 37° C. under an atmosphere of 5% CO2 in air.
Stock drug solutions are prepared in 100% dimethylsulphoxide (DMSO) (unless otherwise recommended by the supplier) at 10 mg/ml, and heated or sonicated if necessary to dissolve the sample. The stocks are kept at −20° C. For the assays, the compound is further diluted to the appropriate concentration using complete medium.
Assays are performed in 96-well microtiter plates, each well containing 100 μl of culture medium with 8×10^3 bloodstream forms with or without a serial drug dilution. The highest concentration of the test compounds is 90 μg/ml. Seven 3-fold drug dilutions are used, covering a range from 90 μg/ml to 0.123 μg/ml. Each drug is tested in duplicate. Active compounds are tested twice for confirmation. The final result is the mean of the four individual IC50 values. After 72 hrs of incubation, the plates are inspected under an inverted microscope to assure growth of the controls and sterile conditions.
Ten microliters of Alamar Blue (12.5 mg resazurin dissolved in 100 ml distilled water) are then added to each well and the plates are incubated for another 2 hours. The plates are read with a Spectramax Gemini XS microplate fluorometer (Molecular Devices Cooperation, Sunnyvale, Calif., USA) using an excitation wave length of 536 nm and an emission wave length of 588 nm. IC50 values are determined using the microplate reader software Softmax Pro (Molecular Devices Cooperation, Sunnyvale, Calif., USA).
For orientation: Resazurin is reduced to fluorescent resorufin, in cell work by metabolically active cells.

Data set [2] shares this test system. As to the kind of experiment: Sleeping sickness acute mouse model, T. b. rhodesiense STIB900. In kind it is in vivo, mice (NMRI). The procedure: Sleeping Sickness: Acute Model—Trypanosome b. rhodesiense STIB900 Parasite and Animal Strains Trypanosoma brucei rhodesiense STIB900 is used for this model. Female mice (NMRI), weighing 20-25 g, are maintained at 22° C. and 70% relative humidity.
(§1) Standard drugs as positive controls are Melarsoprol (Arsobal®, Specia, France) and Diminazene aceturate (Berenil®, Hoechst, Germany). Stock solutions of all test items were prepared in DMSO.

Data set [3] deals with Trypanosoma brucei brucei GVR 35. As to the kind of experiment: Sleeping sickness in vivo chronic CNS mouse model, T. b. brucei GVR 35. Details: species or system mice (NMRI). The following applies: 40 mg/kg single i.p. dose on day +21. The procedure:
Sleeping Sickness: In Vivo Chronic CNS Model—Trypanosoma b. brucei GVR 35 Parasite and Animal Strains Trypanosoma brucei brucei GVR 35 which leads to a CNS infection by day 21 post-infection (Jennings and Gray, Contrib. Microbiol. Immunol. 7, 147-54, 1983) is used for this model.
Female mice (NMRI), weighing 20-25 g, are maintained at 22° C. and 70% relative humidity.
Infection: The bloodstream forms are from a stock of cryopreserved stabilates containing 10% glycerol. The stabilate is suspended in PSG (phosphate-saline-glucose) 6:4 (Lanham & Godfrey, Exp. Parasitol. 28, 521-534, 1970) to obtain a trypanosome concentration of 8×10^4/ml. Each mouse is intraperitoneally injected with 0.25 ml inoculum (equivalent to 2×10^4 trypanosomes) on day 0.
Experimental groups and control groups each consist of 5 mice.
Evaluation endpoint: On day +28 and then twice a week until day +50 parasitaemia of all animals is checked by tail blood examination and recorded based on a subjective scale ranging from (+)=1 trypanosome/20 fields to +++=>100 trypanosomes/field with a 20× objective. After day +50 the mice are checked only once per week until day +180. For mice dying before day +180 the day of death is recorded. At day +180, surviving and aparasitaemic mice are considered cured and then euthanized. […]

The conditions of data set [4]: patients treated for African trypanomiasis; cited from earlier work.
Data set [5] has as its system Trypanosoma brucei brucei STIB795. As to the kind of experiment: Sleeping sickness acute mouse model, T. b. brucei STIB795. Format: in vivo, mice (NMRI). The settings on record: ip injection, four consecutive days, daily doses of 50 mg/kg; T. b. brucei STIB795 infected mice. The protocol:
Trypanosoma brucei brucei STIB795 is used for this model. Female mice (NMRI), weighing 20-25 g, are maintained at 22° C. and 70% relative humidity.
as §1

Setting [6] is: T. b. rhodesiense STIB 900, in vitro, 72 h incubation, Alamar Blue, read-out: IC50.
The mark [7] stands for this setting: 4 × 20 mg/kg p.o., determined on day 18.

One may read the IC50 as the concentration that inhibits the measured activity by half. As for `O=NN(CCCl)C(=O)NCCCl` [Carmustine], the IC50 in data set [1] (setting [6]) was 2.18 mg/L (≈ 10.2 µM).

For the compound `CN(C)/N=N/c1[nH]cnc1C(N)=O` [Dacarbazine], the “MSD (mean survival days)” value in data set [2] (setting [7]) is on record as 16 days; in data set [2] (4 × 50 mg/kg p.o., determined on day 18) it was >18 days. The IC50 in data set [1] (setting [6]) was 19.7 mg/L (≈ 108 µM).

Take `N=C(N)c1ccc(/N=N/Nc2ccc(C(=N)N)cc2)cc1` [Diminazene diaceturate]: the “course of parasitaemia and death (negative control)” value in data set [3] was “all mice clear parasitaemia but relapse before day +40 and die between day +50 and day +60”.

On to `CC(=O)O[C@@]12CO[C@@H]1C[C@H](O)[C@@]1(C)C(=O)[C@H](O)C3=C(C)[C@@H](OC(=O)[C@H](O)[C@@H](NC(=O)OC(C)(C)C)c4ccccc4)C[C@@](O)([C@@H](OC(=O)c4ccccc4)[C@H]21)C3(C)C` [Docetaxel], for which the IC50 in data set [1] (setting [6]) came out at 0.006 mg/L (≈ 0.00743 µM).

As for `COc1cccc2c1C(=O)c1c(O)c3c(c(O)c1C2=O)C[C@@](O)(C(=O)CO)C[C@@H]3O[C@H]1C[C@H](N)[C@H](O)[C@H](C)O1` [Doxorubicin], the concentration for half-maximal inhibition (IC50) in data set [1] (setting [6]) was determined as 0.015 mg/L (≈ 0.0276 µM).

`C[C@]12CC[C@@H]3c4ccc(OC(=O)N(CCCl)CCCl)cc4CC[C@H]3[C@@H]1CC[C@@H]2O` [Estramustine] showed an IC50 in data set [1] (72 h) of 41.5 mg/L (≈ 94.2 µM).

In the case of `Nc1nc(N)nc(Nc2ccc([As]3SCC(CO)S3)cc2)n1` (stereo not drawn) [Melarsoprol], in data set [4], the “often fatal reactive encephalopathy, share of treated patients” value is on record as “up to 10%”.

With `CC(=O)O[C@H]1C(=O)[C@@]2(C)[C@H]([C@H](OC(=O)c3ccccc3)[C@]3(O)C[C@H](OC(=O)[C@H](O)[C@@H](NC(=O)c4ccccc4)c4ccccc4)C(C)=C1C3(C)C)[C@]1(OC(C)=O)CO[C@@H]1C[C@@H]2O` [Paclitaxel], in data set [1] (setting [6]), the IC50 is 0.01 mg/L (≈ 0.0117 µM).

Consider `Cn1nnc2c(C(N)=O)ncn2c1=O` [Temozolomide], for which the “MSD (mean survival days)” value in data set [2] (setting [7]) is reported as >18 days; in data set [2] (4 × 50 mg/kg i.p.) it was >51.5 days; in data set [2] (4 × 50 mg/kg p.o.), >60 days. The results for the Cured/Infected in data set [2] (4 × 50 mg/kg i.p.) and in data set [2] (4 × 50 mg/kg p.o.) were 3/4 and 4/4, respectively. In data set [5], this compound showed a cure rate of 100%. Further, the 50% inhibitory concentration (IC50) in data set [1] (setting [6]) is 27.7 mg/L (≈ 143 µM).

In the case of `CC[C@]1(O)C[C@@H]2CN(CCc3c([nH]c4ccccc34)[C@@](C(=O)OC)(c3cc4c(cc3OC)N(C)[C@H]3[C@@](O)(C(=O)OC)[C@H](OC(C)=O)[C@]5(CC)C=CCN6CC[C@]43[C@@H]65)C2)C1` [Vinblastine], in data set [1] (setting [6]), the 50% inhibitory concentration (IC50) was 0.13 mg/L (≈ 0.16 µM).
